Measured values published in US20070155752A1, “2-Amino-o4-substituted pteridines and their use as inactivators of o6-alkylguanine-dna alkyltransferase” (Government of the United States of America,, priority 2004, published 2007).
Like-named read-outs stand apart in the source and are kept apart here. Marks after values point to notes of the source that are not given here.

What was measured:
[1] = system: HT29 cells; details: for Enhancement of HT29 cell killing by BCNU / ED90, concentration required to kill 90% of HT29 cells with BCNU: BCNU 40 μM
[2] = system: A549 lung tumor cells; experiment: Colony-forming cytotoxicity assay with BCNU, A549 cells; assay type: cell-based; details: 40 μM BCNU, 2 hr exposure in folate free medium
Experimental: (§1) 2-Amino-O^4-benzyl-6-carboxypteridine (5) is not effective probably because the negative charge on the molecule at physiological pH prevents its easy entry into cells. However, even though O^4-benzylfolic acid is also anionic at physiological pH, it does enhance cell killing by BCNU. Furthermore, its effectiveness as an adjuvant is a function of the cells' ability to express the α-form of the folic acid receptor. […] KB cell killing by 80 μM BCNU in combination with 7 is also illustrated. For these experiments (FIG. 2) cells were grown in RPMI medium, were incubated with 7 for 2 hr and were then treated with either 40 μM BCNU (A549, HT29 and KB cells) or 80 μM BCNU (KB cells) for 2 hr. The medium was then replaced with fresh medium containing no 7. Cells were kept for 16-18 hr before being replated. […]
(§2) Cells were grown either in Dulbecco's modified Eagle's medium supplemented with 10% fetal bovine serum plus 1.5 mM glutamine and 50 μg/mL gentamycin (HT29) or in RPMI 1640 medium in the presence of 10% fetal bovine serum (HT29, A549 and KB cells). The effect of AGT inactivators on the sensitivity of cells to BCNU was determined using a colony-forming assay.^13 Cells were plated at a density of 10^6 in 25-cm^2 flasks and 24 h later were incubated with different concentrations of AGT inactivator for 2 h before exposure to 40 μM (HT29 cells and A549 cells) or 80 μM (KB cells) of BCNU for 2 h. […]

[3] = system: KB nasopharyngeal tumor cells; experiment: Colony-forming cytotoxicity assay with BCNU, KB cells; assay type: cell-based; details: 40 μM or 80 μM BCNU, 2 hr exposure in folate free medium
Experimental: as §1, §2

[4] = molecular target: T1, P140K mutant alkyltransferase (Homo sapiens, UniProt P16455, P140K); details: cited from earlier work
T1 construct: His tag
T1 sequence (P16455 1-207 P140K): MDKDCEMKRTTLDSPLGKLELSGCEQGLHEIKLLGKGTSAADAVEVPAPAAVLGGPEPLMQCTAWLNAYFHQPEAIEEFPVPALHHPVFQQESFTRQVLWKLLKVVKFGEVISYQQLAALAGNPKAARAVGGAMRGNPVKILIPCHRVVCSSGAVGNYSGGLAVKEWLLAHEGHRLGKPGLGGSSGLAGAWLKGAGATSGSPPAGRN

[5] = Dulbecco's medium, inactivator present before, during and after BCNU for 16-18 hours
[6] = RPMI medium, inactivator present before and during BCNU only

## Nc1nc(OCc2ccccc2)c2nccnc2n1 [Compound 1, 2-amino-O^4-benzylpteridine]
[1]
  Enhancement of HT29 cell killing by BCNU: capable of enhancing
[1]; [5]
  ED90, concentration required to kill 90% of HT29 cells with BCNU: 0.2^b μM

## Cc1nc2nc(N)nc(OCc3ccccc3)c2nc1C [Compound 2, 2-amino-O^4-benzyl-6,7-dimethylpteridine]
[1]
  Enhancement of HT29 cell killing by BCNU: capable of enhancing
[1]; [5]
  ED90, concentration required to kill 90% of HT29 cells with BCNU: 0.6^b μM

## Nc1nc(OCc2ccccc2)c2nc(CO)cnc2n1 [Compound 4, 2-Amino-O^4-benzyl-6-hydroxymethylpteridine]
[1]
  Enhancement of HT29 cell killing by BCNU: capable of enhancing
[1]; [5]
  ED90, concentration required to kill 90% of HT29 cells with BCNU: 0.7^b μM

## Nc1nc(OCc2ccccc2)c2nc(C(=O)O)cnc2n1 [Compound 5, 2-Amino-O^4-benzylpteridine-6-carboxylic acid]
[1]
  Enhancement of HT29 cell killing by BCNU: not effective
[1]; [5]
  ED90, concentration required to kill 90% of HT29 cells with BCNU: inactive

## Nc1nc(OCc2ccccc2)c2nc(C=O)cnc2n1 [Compound 6, 2-Amino-O^4-benzyl-6-formylpteridine]
[1]
  Enhancement of HT29 cell killing by BCNU: capable of enhancing
[1]; [6]
  ED90, concentration required to kill 90% of HT29 cells with BCNU: 0.7^c μM

## Nc1nc(OCc2ccccc2)c2nc(CNc3ccc(C(=O)N[C@@H](CCC(=O)O)C(=O)O)cc3)cnc2n1 [Compound 7, O^4-Benzylfolic acid]
[2]
  Effectiveness as an adjuvant for cell killing by BCNU (FIG. 2): lowest
[3]
  Effectiveness as an adjuvant for cell killing by BCNU (FIG. 2): greatest
[1]
  Enhancement of HT29 cell killing by BCNU: capable of enhancing
[1]; RPMI folate-free medium
  ED90, concentration required to kill 90% of HT29 cells with BCNU: 15 µM
[1]; [6]
  ED90, concentration required to kill 90% of HT29 cells with BCNU: 24^c,d μM
[1]; HT29 cells, 40 μM BCNU, 2 hr exposure in folate free medium
  Effectiveness as an adjuvant for cell killing by BCNU (FIG. 2): somewhat greater

## Nc1nc(OCc2ccccc2)c2nc[nH]c2n1 [O^6-benzylguanine, reference compound]
[1]; [5]
  ED90, concentration required to kill 90% of HT29 cells with BCNU: 0.4^b μM
[1]; [6]
  ED90, concentration required to kill 90% of HT29 cells with BCNU: 0.7^c μM
[4]
  Inactivation of the P140K mutant alkyltransferase: essentially resistant
